Results: patent US9622970B2, “Pharmaceutical composition containing lutein and antioxidant for treating and preventing human disease” (priority 2014, dated 2017)

Test: Plasma lutein concentration in chickens fed lutein or preparation of lutein (HPLC)
Format: in vivo, chicken
Conditions: diet with 15 mg lutein/kg for 15 days
Description: Chickens (50), weighing 1.0±0.2 kg, were randomly divided into two treatments, with 25 chickens each. Chickens were individually housed in cages measuring 0.2×0.2 m, and were submitted to a lighting program of 16 h light/day. Chickens were kept under a temperature of 20±5° C. Feed and water were supplied ad libitum.
After two weeks of washout period, when the chickens were fed lutein or preparation of lutein with basal diet, two groups were fed the basal diets lutein or preparation of lutein for a period of 15 days. Lutein contents were determined using a HPLC method. The basal diet contained 0.5 mg lutein/kg. The two diets were formulated to contain the same level of 15 mg lutein/kg. All feeds were prepared every day.
Morning blood samples were taken on day 0, and days 3, 6, 12 for lutein analysis. The number of eggs laid by each chicken was counted during the experiment. Blood samples were obtained by puncture of the vena ulnaris. One milliliter of blood was sampled from each chicken. The plasma was separated by centrifugation. Plasma lutein concentrations have been detected. […]
A single gradient-type HPLC system was used for the parallel analysis of plasma concentration of lutein. The HPLC systems consisted of two solvent-delivery systems detected with a 436-nm and a 280-nm filter. The samples were analyzed by HPLC method. Lutein was quantified by determining the peak area at 445 nm. […]

- Plasma lutein concentration: 1.20 ± 0.10 μg lutein/ml
SMILES: CC1=C[C@H](O)CC(C)(C)[C@H]1/C=C/C(C)=C/C=C/C(C)=C/C=C/C=C(C)/C=C/C=C(C)/C=C/C1=C(C)C[C@@H](O)CC1(C)C [Lutein, lutein]
